Reference: ChEMBL document CHEMBL5042543, “Bridged Piperidine Analogues of a High Affinity Naphthalene-Based P2Y14R Antagonist” (J Med Chem, 2022)
Values after ≈ are worked out from the molar mass of the structure shown. Active and inactive are the calls of the source. The rule behind the calls is not given here.

Experiments:
[1] = Plasma protein binding in rat assessed as bound fraction; type: ADME, cell-free
[2] = Stability of the compound in simulated intestinal fluid assessed as parent compound remaining at 120 mins; type: ADME; details: simulated gi fluid, 2 h
[3] = Stability in rat plasma assessed as compound remaining after 120 mins; type: ADME, cell-free; details: 2 h
[4] = system: HepG2; assay: Cytotoxicity against human HepG2 cells; type: toxicity, cell-based
[5] = Aqueous solubility of the compound at pH 4; details: buffer
[6] = Stability in mouse liver microsomes assessed as half life; type: ADME, Microsome
[7] = Stability in human liver microsomes assessed as half life; type: ADME, Microsome
[8] = Distribution coefficient, logD of compound at pH 7.4 by HPLC analysis; type: physicochemical; details: octanol/water
[9] = Stability in mouse plasma assessed as compound remaining after 120 mins; type: ADME, cell-free; details: 2 h
[10] = Toxicity in Hsd:ICR (CD-1) mouse at 10 micromol/kg, ip; details: in vivo, dose 10 µmol/kg
[11] = Plasma protein binding in human assessed as bound fraction; type: ADME, cell-free
[12] = Stability in rat liver microsomes assessed as half life; type: ADME, Microsome
[13] = Half life in Wistar rat at 0.5 mg/kg, iv; type: ADME, organism-based; details: in vivo
[14] = Half life in Wistar rat at 1 mg/kg, ip; type: ADME, organism-based; details: in vivo
[15] = Plasma protein binding in mouse assessed as bound fraction; type: ADME, cell-free
[16] = target: Sigma intracellular receptor 2 (Homo sapiens, UniProt Q5BJF2); assay: Inhibition of sigma 2 receptor (unknown origin) assessed as binding constant
Sigma intracellular receptor 2, sequence (Q5BJF2 whole entry): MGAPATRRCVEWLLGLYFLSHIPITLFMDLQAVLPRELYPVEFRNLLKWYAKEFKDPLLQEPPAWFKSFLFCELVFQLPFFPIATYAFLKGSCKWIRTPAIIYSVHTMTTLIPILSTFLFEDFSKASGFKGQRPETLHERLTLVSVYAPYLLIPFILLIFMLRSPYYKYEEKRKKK

[17] = Stability of the compound in simulated gastric fluid assessed as parent compound remaining at 120 mins by NMR analysis; type: ADME; details: simulated gi fluid, 2 h
[18] = Prodrug conversion in aqueous medium at pH 7.4 assessed as conversion of 4-(4-((1S,4S,5S)-2-(Ethoxycarbonyl)-2-azabicyclo[2.2.1]heptan-5-yl)phenyl)-7-(4-(trifluoro-methyl)phenyl)-2-naphthoic acid at 72 hrs by HPLC analysis; type: ADME; details: buffer, pH 7.4, 72 h
[19] = system: Mus musculus; assay: Antiinflammatory activity in C57BL/6J mouse model of ovalbumin/Aspergillus-induced allergic asthma assessed as reduction in recruitment of eosinophils into airway at 10 mg/kg, ip administered 30 mins prior to allergen challenge and measured after 16 days; type: functional, organism-based; details: time 16.0 day
[20] = system: Mus musculus; assay: Antiinflammatory activity in C57BL/6J mouse model of ovalbumin/Aspergillus-induced allergic asthma assessed as reduction in recruitment of neutrophils into airway at 10 mg/kg, ip administered 30 mins prior to allergen challenge and measured after 16 days; type: functional, organism-based; details: time 16.0 day
[21] = system: Mus musculus; assay: Antiinflammatory activity in C57BL/6J mouse model of ovalbumin/Aspergillus-induced allergic asthma assessed as reduction in recruitment of lymphocytes into airway at 10 mg/kg, ip administered 30 mins prior to allergen challenge and measured after 16 days; type: functional, organism-based; details: time 16.0 day
[22] = target: T1, liver carboxylesterase (Sus scrofa, UniProt Q29550); assay: Stability of the compound in aqueous medium at pH 7.4 assessed as half life in presence of porcine liver esterase; type: physicochemical; details: pig
T1 sequence (Q29550 whole entry): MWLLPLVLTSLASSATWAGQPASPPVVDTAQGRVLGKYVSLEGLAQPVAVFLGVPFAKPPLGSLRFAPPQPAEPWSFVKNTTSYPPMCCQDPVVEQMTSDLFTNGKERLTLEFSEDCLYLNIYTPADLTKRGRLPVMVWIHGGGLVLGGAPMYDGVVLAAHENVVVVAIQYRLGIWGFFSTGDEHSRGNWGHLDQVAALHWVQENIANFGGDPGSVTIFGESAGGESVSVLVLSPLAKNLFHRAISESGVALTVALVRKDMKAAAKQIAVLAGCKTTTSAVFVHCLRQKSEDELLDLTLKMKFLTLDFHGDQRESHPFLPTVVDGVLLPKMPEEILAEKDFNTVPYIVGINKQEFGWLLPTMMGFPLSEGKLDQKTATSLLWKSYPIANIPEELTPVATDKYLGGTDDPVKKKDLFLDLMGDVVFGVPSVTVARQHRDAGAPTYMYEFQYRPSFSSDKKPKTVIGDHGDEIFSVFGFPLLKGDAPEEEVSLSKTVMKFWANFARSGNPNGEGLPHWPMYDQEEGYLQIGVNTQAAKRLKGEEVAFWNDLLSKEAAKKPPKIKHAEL

[23] = system: Mus musculus; assay: Antiinflammatory activity in C57BL/6J mouse model of ovalbumin/Aspergillus-induced allergic asthma assessed as reduction in recruitment of immune cells into lungs at 10 mg/kg, ip administered 30 mins prior to allergen challenge and measured after 16 days; type: functional, organism-based; details: time 16.0 day
[24] = target: T2, Muscarinic acetylcholine receptor M1 (Homo sapiens, UniProt P11229); assay: Inhibition of muscarinic M1 receptor (unknown origin) assessed as binding constant
T2 sequence (P11229 whole entry): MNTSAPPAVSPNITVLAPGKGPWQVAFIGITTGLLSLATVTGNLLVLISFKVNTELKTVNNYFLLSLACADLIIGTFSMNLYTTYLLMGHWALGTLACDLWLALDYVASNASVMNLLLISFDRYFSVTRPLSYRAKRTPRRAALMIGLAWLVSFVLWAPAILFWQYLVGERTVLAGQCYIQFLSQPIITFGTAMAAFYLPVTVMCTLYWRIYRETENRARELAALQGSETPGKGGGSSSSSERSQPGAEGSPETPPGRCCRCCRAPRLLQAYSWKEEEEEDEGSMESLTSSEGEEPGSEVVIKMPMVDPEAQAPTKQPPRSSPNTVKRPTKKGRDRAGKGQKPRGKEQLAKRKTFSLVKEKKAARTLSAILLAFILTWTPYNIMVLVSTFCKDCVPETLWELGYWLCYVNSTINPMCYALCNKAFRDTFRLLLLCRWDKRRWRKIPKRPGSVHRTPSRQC

[25] = target: Sodium-dependent serotonin transporter (Homo sapiens, UniProt P31645); assay: Inhibition of SERT receptor (unknown origin) assessed as binding constant
Sodium-dependent serotonin transporter, sequence (P31645 whole entry): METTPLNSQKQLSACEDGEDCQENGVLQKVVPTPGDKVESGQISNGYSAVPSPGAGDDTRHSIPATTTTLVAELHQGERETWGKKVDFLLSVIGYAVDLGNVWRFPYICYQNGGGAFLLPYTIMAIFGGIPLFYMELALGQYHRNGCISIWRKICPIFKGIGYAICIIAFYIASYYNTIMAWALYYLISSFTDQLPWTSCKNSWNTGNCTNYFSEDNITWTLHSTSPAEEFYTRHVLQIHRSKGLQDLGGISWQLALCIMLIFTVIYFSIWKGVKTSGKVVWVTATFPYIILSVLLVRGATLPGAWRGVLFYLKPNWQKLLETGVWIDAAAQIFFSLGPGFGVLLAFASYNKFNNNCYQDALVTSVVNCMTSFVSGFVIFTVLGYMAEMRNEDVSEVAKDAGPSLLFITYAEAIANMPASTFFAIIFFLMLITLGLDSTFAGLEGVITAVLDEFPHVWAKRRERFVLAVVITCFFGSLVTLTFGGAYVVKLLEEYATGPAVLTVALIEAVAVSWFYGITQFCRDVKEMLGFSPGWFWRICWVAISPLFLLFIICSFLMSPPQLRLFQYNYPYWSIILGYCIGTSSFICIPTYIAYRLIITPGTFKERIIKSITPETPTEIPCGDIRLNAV

[26] = Plasma protein binding in rat assessed as compound remaining at 5 hrs; type: ADME, cell-free
[27] = Plasma protein binding in mouse assessed as compound remaining at 5 hrs; type: ADME, cell-free
[28] = system: Mus musculus; assay: Antiinflammatory activity in C57BL/6J mouse model of ovalbumin/Aspergillus-induced allergic asthma assessed as reduction in eosinophil counts in BALF at 10 mg/kg, ip administered 30 mins prior to allergen challenge and measured after 16 days; type: functional, organism-based; details: time 16.0 day
[29] = system: Mus musculus; assay: Antiinflammatory activity in C57BL/6J mouse model of ovalbumin/Aspergillus-induced allergic asthma assessed as reduction in neutrophil counts in BALF at 10 mg/kg, ip administered 30 mins prior to allergen challenge and measured after 16 days; type: functional, organism-based; details: time 16.0 day
[30] = system: Mus musculus; assay: Reversal of CCI-induced mechano-allodynia in Hsd:ICR (CD-1) mouse model of neuropathic pain at 10 micromol/kg, ip measured after 5 hrs; type: functional, organism-based; details: dose 10.0 µmol/kg
[31] = system: Mus musculus; assay: Reversal of CCI-induced mechano-allodynia in Hsd:ICR (CD-1) mouse model of neuropathic pain at 10 micromol/kg, ip measured after 3 hrs; type: functional, organism-based; details: dose 10.0 µmol/kg
[32] = system: Mus musculus; assay: Antiinflammatory activity in C57BL/6J mouse model of ovalbumin/Aspergillus-induced allergic asthma assessed as reduction in macrophage counts in BALF at 10 mg/kg, ip administered 30 mins prior to allergen challenge and measured after 16 days; type: functional, organism-based; details: time 16.0 day
[33] = system: Mus musculus; assay: Antiinflammatory activity in C57BL/6J mouse model of ovalbumin/Aspergillus-induced allergic asthma assessed as reduction in allergic inflammation at 10 mg/kg, ip administered 30 mins prior to allergen challenge and measured after 16 days; type: functional, organism-based; details: time 16.0 day
[34] = target: Kappa-type opioid receptor (Homo sapiens, UniProt P41145); assay: Inhibition of KOR (unknown origin) assessed as binding constant
Kappa-type opioid receptor, sequence (P41145 whole entry): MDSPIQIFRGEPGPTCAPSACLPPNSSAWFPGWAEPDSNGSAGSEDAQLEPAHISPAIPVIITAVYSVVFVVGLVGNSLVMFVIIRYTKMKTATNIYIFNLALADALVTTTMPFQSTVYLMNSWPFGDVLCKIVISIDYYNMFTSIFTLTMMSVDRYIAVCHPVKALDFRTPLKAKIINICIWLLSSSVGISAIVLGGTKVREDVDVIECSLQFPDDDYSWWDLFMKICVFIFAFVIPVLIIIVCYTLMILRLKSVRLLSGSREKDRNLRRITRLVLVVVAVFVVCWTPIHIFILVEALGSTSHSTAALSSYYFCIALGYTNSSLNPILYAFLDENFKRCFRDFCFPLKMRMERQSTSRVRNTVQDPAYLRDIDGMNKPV

SMILES	PPB [1]	Stability [2]	Stability [3]	IC50 [4]	t1/2 [6]	t1/2 [7]	Stability [9]	PPB [11]	t1/2 [12]	half-life [13]	half-life [14]	PPB [15]	Ki [16]	Stability [17]	Drug metabolism [18]	logD ([8]; read-out: logD)	half-life [22]	further results
O=C(O)c1cc(-c2ccc([C@H]3C[C@H]4C[C@@H]3CN4)cc2)c2ccc(-c3ccc(C(F)(F)F)cc3)cc2c1 [listing 1 of 2 here]	99.79%	99.1%	82.8%	11000 nM	4.05 h	4.67 h	100%	87.98%	1.52 h	7.24 h	8.94 h	99.76%	710 nM	100%				solubility [5]: 1.22 µg/mL (≈ 2.5 µM); logD [8]: 1.9; Activity [10]: Non-Toxic
CCOC(=O)N1C[C@H]2C[C@@H]1C[C@@H]2c1ccc(-c2cc(C(=O)OCC(=O)N(C)C)cc3cc(-c4ccc(C(F)(F)F)cc4)ccc23)cc1															3%	6	> 72 h	Activity [19]: Active; Activity [20]: Active; Activity [21]: Active
O=C(O)c1cc(-c2ccc([C@@H]3C[C@@H]4C[C@H]3NC4=O)cc2)c2ccc(-c3ccc(C(F)(F)F)cc3)cc2c1	96.18%	100%	74.7%	9340 nM	> 16.67 h	12.5 h	74.1%	98.89%	1.49 h	2.11 h	4.59 h	99.74%	2100 nM	59.3%				Activity [23]: Active
CN(C)C(=O)COC(=O)c1cc(-c2ccc([C@H]3C[C@H]4C[C@@H]3CN4)cc2)c2ccc(-c3ccc(C(F)(F)F)cc3)cc2c1								99.7%					390 nM		59%		> 72 h	Ki [24]: > 1000 nM; Ki [25]: > 1000 nM; Fu [26]: 0.72%; Fu [27]: 0%
O=C(O)c1cc(-c2ccc([C@H]3C[C@H]4C[C@@H]3CN4)cc2)c2ccc(-c3ccc(C(F)(F)F)cc3)cc2c1 [listing 2 of 2 here]																		Activity [28]: Active; Activity [29]: Active; Activity [30]: inactive; Activity [31]: Active; Activity [32]: inactive; Activity [33]: Active
O=C(O)c1cc(-c2ccc(C3CCNC3)cc2)c2ccc(-c3ccc(C(F)(F)F)cc3)cc2c1 (racemic)													1200 nM			1.9		Ki [34]: > 1000 nM
